Key:
Assay type in all cases: cell-based
[1] = test system: WT HEK293; assay: Bulk calcium assay in untransfected WT HEK293; settings: 10 μM, 1 mM external Ca2+
[2] = molecular target: T1, TRPA1 (Homo sapiens, UniProt O75762); assay: Bulk calcium assay (Fluo-4) in HEK cells overexpressing TRPA1
T1 construct: host or cells: HEK TRex293
Method: (§1) HEK TRexTRPV1 were cultured in DMEM, 10% Fetal Bovine Serum, 2 mM Lglutamine, 10 μg/ml Blasticidin (Calbiochem, San Diego Calif.), 400 μg/ml Zeocin (InvivoGen, San Diego Calif.), where indicated transgene expression was induced using 1 μg/ml Tetracycline for 16-24 hrs. Unless otherwise indicated, basal expression of TRPV1 without induction was sufficient for these studies, and comparisons were made to untransfected HEK where needed. HEKTRex293 over-expressing human TRPV2, human TRPA1 and human TRPM8 were obtained from SB Drug Discovery (Glasgow, Scotland) and cultured as described above. The cannabinoids and terpenes were assayed in HEK cells that have been transfected with the TRPV1 ion channel protein. These cells are called HEK293-V1 cells.
(§2) Cells were washed and incubated with 0.2 micromolar Fluo-4 for 30 minutes at 37° C. in a standard modified Ringer's solution of the following composition (in mM): NaCl 145, KCl 2.8, CsCl 10, CaCl2 10, MgCl2 2, glucose 10, Hepes·NaOH 10, pH 7.4, 330 mOsm. Cells were transferred to 96-well plates at 50,000 cells/well and stimulated as indicated. Calcium signals were acquired using a Flexstation 3 (Molecular Devices, Sunnydale, USA). Data was analyzed using SoftMax® Pro 5 (Molecular Devices). Where indicated, nomically calcium-free external conditions were achieved by the preparation of 0 mM CaCl2 Ringer solution containing 1 mM EGTA.
(§3) Calcium responses mediated by TRPA1, TRPM8, TRPV2, and TRPV1 were tested by calcium assay in the cell culture system. Cells were washed and incubated with 0.2 μM fluo-4 acetoxymethyl ester (“Fluo-4”) for 30 minutes at 37° C. in a standard modified Ringer's solution of the following composition (in mM): NaCl 145, KCl 2.8, CsCl 10, CaCl2 10, MgCl2 2, glucose 10, Hepes·NaOH 10, pH 7.4, 330 mOsm. Cells were transferred to 96-well plates at 50,000 cells/well and stimulated with 10 μM myrcene diluted in DMSO. Vehicle (DMSO) was used as a negative control. Vehicle traces were subtracted from the myrcene traces for each cell line.
(§4) The potential for different cannabinoids to target specific TRP channels, or to co-target more than one channel type, are of potential therapeutic options for the treatment and management of pain. Comparison of the impacts of a variety of cannabinoid on overexpression systems for TRPV2, TRPM8, and TRPA1 were performed in a side-by-side fashion, under bulk calcium assays where the measurements with each trace representing averaged triplicates of 100,000 cells per sample. As shown in FIGS. 41-43 and summarized in Table 3, there are clear differences in responsiveness between cannabinoids at a single channel type than between channel types to a given cannabinoid.

[3] = molecular target: T2, TRPM8 (Homo sapiens, UniProt Q7Z2W7); assay: Bulk calcium assay (Fluo-4) in HEK cells overexpressing TRPM8
T2 construct: host or cells: HEK TRex293
T2 sequence (Q7Z2W7 whole entry): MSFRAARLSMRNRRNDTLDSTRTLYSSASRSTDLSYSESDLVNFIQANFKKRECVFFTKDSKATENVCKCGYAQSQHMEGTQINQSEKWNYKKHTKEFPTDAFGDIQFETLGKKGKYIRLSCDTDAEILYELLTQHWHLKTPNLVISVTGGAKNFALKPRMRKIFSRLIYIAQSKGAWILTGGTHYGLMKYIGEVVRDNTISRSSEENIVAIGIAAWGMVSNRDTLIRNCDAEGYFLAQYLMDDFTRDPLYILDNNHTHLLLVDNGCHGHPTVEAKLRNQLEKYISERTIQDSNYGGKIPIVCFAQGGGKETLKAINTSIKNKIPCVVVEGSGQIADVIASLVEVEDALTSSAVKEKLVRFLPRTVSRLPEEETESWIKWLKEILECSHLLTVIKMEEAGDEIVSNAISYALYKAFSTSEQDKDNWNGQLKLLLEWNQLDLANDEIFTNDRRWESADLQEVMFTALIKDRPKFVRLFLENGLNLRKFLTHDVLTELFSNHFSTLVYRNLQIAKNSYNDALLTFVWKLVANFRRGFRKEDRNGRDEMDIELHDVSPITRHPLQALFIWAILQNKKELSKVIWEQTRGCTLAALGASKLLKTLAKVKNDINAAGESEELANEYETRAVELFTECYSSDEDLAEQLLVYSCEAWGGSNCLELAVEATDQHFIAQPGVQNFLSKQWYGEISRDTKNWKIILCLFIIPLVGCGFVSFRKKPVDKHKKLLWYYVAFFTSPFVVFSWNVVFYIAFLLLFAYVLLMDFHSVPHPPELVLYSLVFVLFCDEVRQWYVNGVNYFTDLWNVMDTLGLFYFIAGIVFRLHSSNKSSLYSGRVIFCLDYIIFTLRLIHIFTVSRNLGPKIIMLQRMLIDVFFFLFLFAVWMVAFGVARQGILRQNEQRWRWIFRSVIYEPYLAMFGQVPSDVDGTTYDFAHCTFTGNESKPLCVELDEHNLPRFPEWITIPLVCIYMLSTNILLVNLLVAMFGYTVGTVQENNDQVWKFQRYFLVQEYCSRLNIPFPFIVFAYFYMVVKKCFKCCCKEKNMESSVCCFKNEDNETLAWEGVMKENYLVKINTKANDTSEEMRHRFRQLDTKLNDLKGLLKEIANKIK
Method: as §1, §2, §3, §4

[4] = molecular target: T3, TRPV1 (Rattus norvegicus, UniProt O35433); assay: Bulk calcium assay (Fluo-4) in HEK-TRPV1 overexpressing cells; settings: bulk calcium assay; TRPV1; mean (SD)
T3 construct: FLAG; expressed in transfected cells
T3 sequence (O35433 whole entry): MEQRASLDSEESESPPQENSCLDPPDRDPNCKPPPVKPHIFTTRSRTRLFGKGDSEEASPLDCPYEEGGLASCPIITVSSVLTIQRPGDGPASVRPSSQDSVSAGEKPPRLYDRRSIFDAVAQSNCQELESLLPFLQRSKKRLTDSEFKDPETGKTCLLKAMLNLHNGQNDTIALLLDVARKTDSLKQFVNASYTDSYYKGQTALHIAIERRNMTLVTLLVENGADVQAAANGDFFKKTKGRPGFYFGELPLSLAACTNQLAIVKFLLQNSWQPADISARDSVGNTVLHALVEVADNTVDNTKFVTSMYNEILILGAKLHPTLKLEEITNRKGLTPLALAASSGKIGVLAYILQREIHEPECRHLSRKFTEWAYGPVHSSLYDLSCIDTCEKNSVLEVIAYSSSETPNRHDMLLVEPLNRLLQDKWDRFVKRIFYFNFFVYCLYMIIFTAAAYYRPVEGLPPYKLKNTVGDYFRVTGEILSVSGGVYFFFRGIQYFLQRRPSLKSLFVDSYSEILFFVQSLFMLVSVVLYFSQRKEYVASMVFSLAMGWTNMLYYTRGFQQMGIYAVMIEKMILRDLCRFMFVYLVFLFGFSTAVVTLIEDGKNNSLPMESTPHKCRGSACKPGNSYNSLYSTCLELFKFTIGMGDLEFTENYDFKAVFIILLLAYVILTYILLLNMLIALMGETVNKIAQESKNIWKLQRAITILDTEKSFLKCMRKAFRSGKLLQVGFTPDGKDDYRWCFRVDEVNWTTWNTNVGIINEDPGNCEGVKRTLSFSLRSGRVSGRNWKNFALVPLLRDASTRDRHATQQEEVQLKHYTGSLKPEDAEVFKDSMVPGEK
Method: as §2
The cell culture system described in U.S. patent application Ser. No. 15/986,316 was used to test the TRPV1-mediated calcium response to various terpenes. The HEK293 cell line was stably transfected with the pcDNA6TR (Invitrogen, CA) plasmid (encoding the tetracycline-sensitive TREx repressor protein), and was maintained in DMEM+10% fetal bovine serum (inactivated at 55° C. for 1 h)+2 mM glutamine in humidified 5% CO2 atmosphere at 37° C. Selection pressure on the TRex 293 cells was maintained by continuous culture in 10 μg/ml Blasticidin (Sigma, St Louis, Mo.).
For production of TRex HEK293 cells with inducible expression of TRPV1, parental cells were electroporated with the rat TRPV1 cDNA in the pcDNA4TO vector and clonal cell lines were selected by limiting dilution in the presence of 400 μg/ml zeocin (Invitrogen, CA). TRPV1 expression was induced using 1 μg/ml tetracycline for 16 h at 37° C. Stable lines were screened for inducible protein expression using anti-FLAG Western blot, and inducible expression was confirmed.
Calcium responses mediated by TRPV1 were tested by calcium assay in the cell culture system. Cells were washed and incubated with 0.2 μM fluo-4 acetoxymethyl ester (“Fluo-4”) for 30 minutes at 37° C. in a standard modified Ringer's solution of the following composition (in mM): NaCl 145, KCl2.8, CsCl10, CaCl2 10, MgCl2 2, glucose 10, Hepes·NaOH 10, pH 7.4, 330 mOsm. Cells were transferred to 96-well plates at 50,000 cells/well and stimulated as indicated. The terpenes used were alpha-bisabool, alpha-pinene, myrcene, camphene, linalool, ocimene, humulene, beta-caryophyllene, beta-pinene, limonene, and nerolidol. The terpenes were diluted in DMSO and added to the wells to a final concentration of 10 μM. Vehicle (DMSO) alone was run as a negative control and subtracted from the terpene traces. Calcium signals were acquired using a Flexstation 3 (Molecular Devices, Sunnydale, USA). Data was analyzed using SoftMax® Pro 5 (Molecular Devices).
as §3
As shown in FIGS. 16A-H, a variety of cannabinoids were capable of initiating Ca^2+ fluxes in HEK-TRPV1 overexpressing cells, except for cannabigerol and cannabinol. Comparative responses to a single dose (10 μM concentration) of a variety of cannabinoids were made in the presence of 1 mM external Ca^2+, which are population-based, or bulk Ca^2+, measurements with each trace representing averaged triplicates of 100,000 cells per sample. […] For each of the cannabinoid compounds, dose responses at the population level were performed. […] The lower limit of detectable calcium responses in this system varied from 10-100 nM (CBDV, CBGA) to 1-10 μM.

[5] = molecular target: T4, TRPV2 (Homo sapiens, UniProt Q9Y5S1); assay: Bulk calcium assay (Fluo-4) in HEK cells overexpressing TRPV2
T4 construct: host or cells: HEK TRex293
T4 sequence (Q9Y5S1 1-764): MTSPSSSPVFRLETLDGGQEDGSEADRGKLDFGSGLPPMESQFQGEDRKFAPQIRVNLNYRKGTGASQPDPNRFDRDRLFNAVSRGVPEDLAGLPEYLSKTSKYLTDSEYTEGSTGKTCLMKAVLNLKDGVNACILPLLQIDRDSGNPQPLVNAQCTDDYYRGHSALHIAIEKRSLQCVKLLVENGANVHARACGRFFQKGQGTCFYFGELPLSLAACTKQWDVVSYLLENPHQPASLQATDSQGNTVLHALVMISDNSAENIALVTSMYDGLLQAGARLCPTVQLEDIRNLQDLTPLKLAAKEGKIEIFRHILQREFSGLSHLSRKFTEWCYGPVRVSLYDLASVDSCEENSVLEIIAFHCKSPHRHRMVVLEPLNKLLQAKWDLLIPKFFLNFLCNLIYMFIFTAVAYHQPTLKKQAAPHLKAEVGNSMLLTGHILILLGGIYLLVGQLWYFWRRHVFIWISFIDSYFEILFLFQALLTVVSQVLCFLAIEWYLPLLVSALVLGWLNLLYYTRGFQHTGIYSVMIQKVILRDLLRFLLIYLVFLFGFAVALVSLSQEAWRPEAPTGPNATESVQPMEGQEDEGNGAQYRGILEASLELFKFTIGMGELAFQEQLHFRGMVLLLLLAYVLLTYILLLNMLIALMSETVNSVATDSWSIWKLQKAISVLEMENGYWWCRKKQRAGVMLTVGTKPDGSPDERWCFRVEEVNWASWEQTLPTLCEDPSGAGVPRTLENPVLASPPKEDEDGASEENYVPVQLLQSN
Method: as §1, §2, §3, §4

T1 sequence (O75762 whole entry): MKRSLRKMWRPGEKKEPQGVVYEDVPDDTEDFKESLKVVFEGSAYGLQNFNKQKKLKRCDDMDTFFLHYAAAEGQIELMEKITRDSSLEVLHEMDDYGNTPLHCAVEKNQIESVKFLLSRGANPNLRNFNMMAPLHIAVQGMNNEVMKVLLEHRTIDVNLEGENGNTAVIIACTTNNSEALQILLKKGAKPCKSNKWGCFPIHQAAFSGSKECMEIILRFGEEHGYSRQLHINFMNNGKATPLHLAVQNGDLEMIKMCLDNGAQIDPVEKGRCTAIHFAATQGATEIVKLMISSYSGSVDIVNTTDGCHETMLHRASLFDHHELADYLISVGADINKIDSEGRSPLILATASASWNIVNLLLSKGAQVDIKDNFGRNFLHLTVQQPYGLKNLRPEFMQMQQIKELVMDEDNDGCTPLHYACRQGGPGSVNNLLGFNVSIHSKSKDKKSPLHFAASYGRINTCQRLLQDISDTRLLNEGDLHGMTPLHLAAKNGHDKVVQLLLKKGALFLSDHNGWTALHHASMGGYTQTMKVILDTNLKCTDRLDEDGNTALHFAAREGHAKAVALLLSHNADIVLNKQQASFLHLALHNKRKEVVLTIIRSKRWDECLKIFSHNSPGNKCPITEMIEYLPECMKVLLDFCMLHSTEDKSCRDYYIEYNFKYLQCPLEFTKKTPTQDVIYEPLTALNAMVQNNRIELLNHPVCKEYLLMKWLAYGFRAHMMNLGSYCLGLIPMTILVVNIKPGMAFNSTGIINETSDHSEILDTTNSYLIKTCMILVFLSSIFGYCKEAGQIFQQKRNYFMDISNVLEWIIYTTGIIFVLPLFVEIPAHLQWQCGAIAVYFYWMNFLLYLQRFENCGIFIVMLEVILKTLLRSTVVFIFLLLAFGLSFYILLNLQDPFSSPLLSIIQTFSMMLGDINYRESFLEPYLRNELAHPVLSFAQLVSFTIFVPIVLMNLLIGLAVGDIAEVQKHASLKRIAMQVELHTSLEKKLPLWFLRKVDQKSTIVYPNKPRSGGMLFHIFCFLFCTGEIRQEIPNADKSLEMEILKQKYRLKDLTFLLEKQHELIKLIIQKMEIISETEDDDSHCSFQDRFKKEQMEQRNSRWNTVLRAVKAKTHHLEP

Row | Structure (SMILES) | calcium response of WT HEK293 [1] | mean maximal Ca^2+ signal RFU achieved 0-180 s (SD), TRPA1 [2] | mean maximal Ca^2+ signal RFU achieved 0-180 s (SD), TRM8 [3] | mean maximal Ca^2+ signal RFU achieved 0-180 s (SD), TRPV1 [4] | mean maximal Ca^2+ signal RFU achieved 0-180 s (SD), TRPV1 [5]
1 | CCCCCc1cc(O)c(C/C=C(\C)CCC=C(C)C)c(O)c1C(=O)O [CBGA, Cannabigerolic Acid] | responding slightly | 3.65 (1.11) RFU | 0.3 (0.01) RFU | 13.77 (0.31) RFU | 0.78 (0.02) RFU
2 | C=C(C)[C@@H]1CCC(C)=C[C@H]1c1c(O)cc(CCCCC)c(C(=O)O)c1O [CBDA, Cannabidiolic Acid] | – | 10.09 (3.08) RFU | 1.92 (0.04) RFU | 4.62 (0.66) RFU | 3.69 (1.2) RFU
3 | CCCCCc1cc(O)c2c(c1)OC(C)(CCC=C(C)C)C=C2 (stereo not shown) [CBC, Cannabichromene] | – | 15.13 (3.35) RFU | 0.97 (0.03) RFU | 3.23 (0.12) RFU | 21.66 (1.89) RFU
